pIC50: −log10 of the molar value. Like-named read-outs stand apart in the source and are kept apart here.
How the values were obtained:
[1] = biological target: T1, protein kinase C zeta (Homo sapiens, UniProt Q05513); assay: PKC Enzyme assay, zeta isozyme; format: biochemical
T1 sequence (Q05513 1-592): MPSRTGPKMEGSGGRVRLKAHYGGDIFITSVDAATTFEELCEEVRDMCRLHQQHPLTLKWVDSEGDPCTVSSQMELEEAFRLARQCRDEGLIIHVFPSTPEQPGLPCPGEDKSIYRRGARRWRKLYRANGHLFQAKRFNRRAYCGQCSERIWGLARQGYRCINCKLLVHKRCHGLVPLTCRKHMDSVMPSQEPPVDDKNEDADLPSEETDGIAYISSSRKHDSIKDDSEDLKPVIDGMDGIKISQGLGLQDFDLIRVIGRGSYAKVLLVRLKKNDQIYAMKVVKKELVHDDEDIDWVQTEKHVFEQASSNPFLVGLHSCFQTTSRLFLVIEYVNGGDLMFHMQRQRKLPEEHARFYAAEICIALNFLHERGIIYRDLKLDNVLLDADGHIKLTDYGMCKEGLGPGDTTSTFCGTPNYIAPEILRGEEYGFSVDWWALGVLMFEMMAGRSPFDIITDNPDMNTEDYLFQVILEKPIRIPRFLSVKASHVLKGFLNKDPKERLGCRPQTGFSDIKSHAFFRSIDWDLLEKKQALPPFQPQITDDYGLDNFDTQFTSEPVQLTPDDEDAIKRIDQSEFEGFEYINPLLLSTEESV
Method: (§1) PKC enzymes=alpha, beta I, beta II, gamma, delta, epsilon, eta and zeta.
(§2) Assay components in a total volume of 250 μL are the following:
(§3) Vesicles consisting of 120 μg/mL phosphatidylserine (Avanti Polar Lipids) and sufficient diacylglycerol (Avanti Polar Lipids) to activate the enzyme to maximum activity in 20 mM HEPES buffer (Sigma, St. Louis, Mo.), pH 7.5, 940 μM calcium chloride (Sigma, St. Louis, Mo.) for assaying the alpha, beta I, beta II and gamma enzyme only, 1 mM EGTA for all the enzymes, 10 mM magnesium chloride (Sigma, St. Louis, Mo.) and 30 μM (gamma-32P) ATP (DuPont). For all the enzymes either histone type HL (Worthington) or myelin basic protein is used as substrate. The assay is started by addition of protein kinase C enzyme incubated at 30° C. for 10 minutes and stopped by adding 0.5 mL of cold trichloroacetic acid (Amresco) followed by 100 μL of 1 mg/mL bovine serum albumin (Sigma, St. Louis, Mo.). The precipitate is collected by vacuum filtration on glass fiber filters employing a TOMTEC™ filtration system and quantified by counting in a beta scintillation counter.

[2] = biological target: protein kinase C beta-2 (Homo sapiens, UniProt P05771); assay: PKC Enzyme assay, beta II isozyme; format: biochemical
protein kinase C beta-2, sequence (P05771 1-673 isoform P05771-2): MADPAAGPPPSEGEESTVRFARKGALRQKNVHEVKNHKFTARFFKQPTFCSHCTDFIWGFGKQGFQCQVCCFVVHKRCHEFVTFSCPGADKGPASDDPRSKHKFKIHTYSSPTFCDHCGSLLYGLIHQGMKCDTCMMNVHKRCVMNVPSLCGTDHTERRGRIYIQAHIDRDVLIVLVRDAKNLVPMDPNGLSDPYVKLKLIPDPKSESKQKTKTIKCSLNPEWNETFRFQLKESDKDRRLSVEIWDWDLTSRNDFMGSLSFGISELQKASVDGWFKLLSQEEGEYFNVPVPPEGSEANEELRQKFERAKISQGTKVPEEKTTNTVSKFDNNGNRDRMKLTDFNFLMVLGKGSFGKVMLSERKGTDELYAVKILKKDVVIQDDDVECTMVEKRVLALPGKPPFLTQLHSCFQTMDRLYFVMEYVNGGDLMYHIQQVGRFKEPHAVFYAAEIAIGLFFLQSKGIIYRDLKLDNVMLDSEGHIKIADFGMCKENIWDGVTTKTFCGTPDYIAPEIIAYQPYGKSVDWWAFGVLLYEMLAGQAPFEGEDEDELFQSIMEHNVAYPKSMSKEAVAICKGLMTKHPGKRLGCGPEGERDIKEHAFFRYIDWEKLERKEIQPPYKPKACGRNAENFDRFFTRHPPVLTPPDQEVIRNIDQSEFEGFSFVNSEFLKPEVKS
Method: as §1, §2, §3

[3] = biological target: protein kinase C delta (Homo sapiens, UniProt Q05655); assay: biochemical
protein kinase C delta, sequence (Q05655 whole entry): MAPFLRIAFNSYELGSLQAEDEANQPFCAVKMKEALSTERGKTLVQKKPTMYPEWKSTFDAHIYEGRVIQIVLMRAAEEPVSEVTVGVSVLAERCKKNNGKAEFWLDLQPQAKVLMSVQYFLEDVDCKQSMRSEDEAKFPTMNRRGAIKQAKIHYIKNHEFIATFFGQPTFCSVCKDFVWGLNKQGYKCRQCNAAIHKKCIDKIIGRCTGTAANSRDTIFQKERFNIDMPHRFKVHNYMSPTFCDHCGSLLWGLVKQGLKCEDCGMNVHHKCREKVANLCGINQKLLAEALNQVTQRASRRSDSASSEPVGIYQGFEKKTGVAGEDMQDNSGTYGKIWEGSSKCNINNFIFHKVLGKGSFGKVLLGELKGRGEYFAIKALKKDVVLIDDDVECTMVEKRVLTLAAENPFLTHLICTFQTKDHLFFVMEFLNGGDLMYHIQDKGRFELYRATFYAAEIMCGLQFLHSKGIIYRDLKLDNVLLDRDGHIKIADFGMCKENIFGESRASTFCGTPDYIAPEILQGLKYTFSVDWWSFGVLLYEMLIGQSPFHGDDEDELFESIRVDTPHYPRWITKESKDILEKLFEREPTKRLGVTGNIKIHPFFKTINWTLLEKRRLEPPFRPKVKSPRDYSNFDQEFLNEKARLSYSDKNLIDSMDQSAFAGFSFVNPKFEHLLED
Method: as §1, §2, §3

[4] = biological target: T2, protein kinase C epsilon (Homo sapiens, UniProt Q02156); assay: PKC Enzyme assay, epsilon isozyme; format: biochemical
T2 sequence (Q02156 1-737): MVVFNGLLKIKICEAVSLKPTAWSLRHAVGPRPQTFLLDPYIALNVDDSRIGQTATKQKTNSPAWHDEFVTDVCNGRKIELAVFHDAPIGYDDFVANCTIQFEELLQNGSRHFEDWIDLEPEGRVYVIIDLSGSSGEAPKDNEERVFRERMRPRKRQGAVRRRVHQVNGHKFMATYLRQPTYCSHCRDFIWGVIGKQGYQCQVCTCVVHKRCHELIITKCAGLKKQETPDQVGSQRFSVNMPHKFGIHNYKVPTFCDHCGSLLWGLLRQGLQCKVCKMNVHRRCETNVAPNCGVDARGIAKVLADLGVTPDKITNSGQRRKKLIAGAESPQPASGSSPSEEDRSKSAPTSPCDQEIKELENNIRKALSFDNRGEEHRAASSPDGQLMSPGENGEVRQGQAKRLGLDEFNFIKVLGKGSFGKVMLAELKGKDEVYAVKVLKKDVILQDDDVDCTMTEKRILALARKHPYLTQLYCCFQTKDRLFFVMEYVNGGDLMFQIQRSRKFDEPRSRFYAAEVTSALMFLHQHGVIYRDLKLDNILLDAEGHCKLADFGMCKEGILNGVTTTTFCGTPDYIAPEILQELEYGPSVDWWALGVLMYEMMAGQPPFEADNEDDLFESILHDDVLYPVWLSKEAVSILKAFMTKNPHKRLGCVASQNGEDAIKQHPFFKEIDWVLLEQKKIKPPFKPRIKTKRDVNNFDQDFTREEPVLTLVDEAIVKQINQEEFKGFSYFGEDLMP
Method: as §1, §2, §3

[5] = biological target: protein kinase C alpha (Homo sapiens, UniProt P17252); assay: PKC Enzyme assay, alpha isozyme; format: biochemical
Method: as §1, §2, §3

[6] = biological target: protein kinase C eta (Homo sapiens, UniProt P24723); assay: PKC Enzyme assay, eta isozyme; format: biochemical
protein kinase C eta, sequence (P24723 whole entry): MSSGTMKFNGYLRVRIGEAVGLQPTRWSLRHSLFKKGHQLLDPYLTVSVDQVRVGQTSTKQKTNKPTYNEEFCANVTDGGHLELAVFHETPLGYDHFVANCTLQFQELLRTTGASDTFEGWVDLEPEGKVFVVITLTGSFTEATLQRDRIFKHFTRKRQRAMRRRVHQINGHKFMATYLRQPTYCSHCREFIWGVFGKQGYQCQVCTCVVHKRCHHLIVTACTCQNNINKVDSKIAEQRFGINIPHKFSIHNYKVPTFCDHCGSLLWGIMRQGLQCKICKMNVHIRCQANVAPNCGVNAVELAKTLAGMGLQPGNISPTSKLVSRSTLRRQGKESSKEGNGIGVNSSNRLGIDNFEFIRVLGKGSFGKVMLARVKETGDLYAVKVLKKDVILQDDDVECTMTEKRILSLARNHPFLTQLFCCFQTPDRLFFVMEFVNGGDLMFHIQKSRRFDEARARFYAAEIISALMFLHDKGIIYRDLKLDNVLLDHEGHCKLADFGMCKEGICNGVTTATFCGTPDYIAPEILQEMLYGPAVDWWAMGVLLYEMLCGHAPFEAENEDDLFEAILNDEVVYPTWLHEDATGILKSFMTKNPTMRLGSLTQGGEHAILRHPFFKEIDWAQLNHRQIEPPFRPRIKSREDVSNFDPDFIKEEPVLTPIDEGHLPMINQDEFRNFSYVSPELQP
Method: as §1, §2, §3

[7] = biological target: protein kinase C beta-1 (Homo sapiens, UniProt P05771); assay: PKC Enzyme assay, beta I isozyme; format: biochemical
protein kinase C beta-1, sequence (P05771 whole entry): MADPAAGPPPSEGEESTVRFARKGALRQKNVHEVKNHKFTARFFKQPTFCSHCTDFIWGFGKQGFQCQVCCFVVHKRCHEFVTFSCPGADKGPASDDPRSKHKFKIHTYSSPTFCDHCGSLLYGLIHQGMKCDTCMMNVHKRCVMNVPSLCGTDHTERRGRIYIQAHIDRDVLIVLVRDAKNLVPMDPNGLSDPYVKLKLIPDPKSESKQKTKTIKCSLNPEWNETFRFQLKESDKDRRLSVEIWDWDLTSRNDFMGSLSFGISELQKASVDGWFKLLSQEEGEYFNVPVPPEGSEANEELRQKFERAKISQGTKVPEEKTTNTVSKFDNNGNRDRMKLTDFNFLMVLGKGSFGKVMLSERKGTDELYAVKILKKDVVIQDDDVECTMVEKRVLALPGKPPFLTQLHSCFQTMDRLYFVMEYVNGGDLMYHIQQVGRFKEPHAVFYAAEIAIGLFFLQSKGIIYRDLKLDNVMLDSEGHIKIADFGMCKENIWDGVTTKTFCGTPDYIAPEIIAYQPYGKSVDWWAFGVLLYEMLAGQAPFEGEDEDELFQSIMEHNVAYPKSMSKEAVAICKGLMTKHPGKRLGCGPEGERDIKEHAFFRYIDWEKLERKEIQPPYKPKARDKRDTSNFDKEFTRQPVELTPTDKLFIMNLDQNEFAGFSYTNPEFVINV
Method: as §1, §2, §3

[8] = biological target: protein kinase C gamma (Homo sapiens, UniProt P05129); assay: PKC Enzyme assay, gamma isozyme; format: biochemical
Method: as §1, §2, §3

[9] = PKC zeta, 30 μM ATP, 30° C., 10 minutes, read-out: IC50 ζ
[10] = PKC beta-2, 30 μM ATP, 30° C., 10 minutes, read-out: IC50 β2
[11] = PKC delta, 30 μM ATP, 30° C., 10 minutes, read-out: IC50 δ
[12] = PKC epsilon, 30 μM ATP, 30° C., 10 minutes, read-out: IC50 ε
[13] = PKC alpha, 30 μM ATP, 30° C., 10 minutes, read-out: IC50 α
[14] = PKC eta, 30 μM ATP, 30° C., 10 minutes, read-out: IC50 η
[15] = PKC beta-1, 30 μM ATP, 30° C., 10 minutes, read-out: IC50 β1
[16] = PKC gamma, 30 μM ATP, 30° C., 10 minutes, read-out: IC50 γ

Row | Compound | pIC50 [1, 9] | pIC50 [2, 10] | pIC50 [3, 11] | pIC50 [4, 12] | pIC50 [5, 13] | pIC50 [6, 14] | pIC50 [7, 15] | pIC50 [8, 16] | pIC50 [1] | pIC50 [2] | pIC50 [3] | pIC50 [4] | pIC50 [5] | pIC50 [6] | pIC50 [7] | pIC50 [8]
1 | Cn1cc(C2=C(c3c[nH]c4ccccc34)C(=O)NC2=O)c2ccccc21 [Example 12] | 5.10 | 7.07 | 6.00 | 6.05 | 5.92 | 6.28 | 7.09 | 5.90 |  |  |  |  |  |  |  | 
2 | O=C1NC(=O)C(c2cn(Cc3ccccc3)c3ccccc23)=C1c1c[nH]c2ccccc12 [Example 14] | 4.47 | 5.94 | 5.06 | 4.52 | 4.87 | 5.35 | 5.94 | 4.60 |  |  |  |  |  |  |  | 
3 | Cn1cc(C2=C(c3cn(C4CCN(CC5CC5)CC4)c4ccccc34)C(=O)NC2=O)c2ccccc21 [Example 39, 3-[1-N-(1-N-(Cyclopropylmethylene)-piperidin-4-yl)-indol-3-yl]-4-(1-N-(methyl)-indol-3-yl)-1H-pyrrole-2,5-dione] | 5.05 | 8.00 | 6.40 | 6.05 | 6.52 | 7.30 | 7.52 | 6.40 |  |  |  |  |  |  |  | 
4 | CN1CCC(n2cc(C3=C(c4cn(C)c5ccccc45)C(=O)NC3=O)c3ccccc32)CC1 [Example 42, 3-[1-(1-Methyl-piperidin-4-yl)-indol-3-yl]-4-(1-methyl-indol-3-yl)-1H-pyrrole-2,5-dione] | 5.40 | 8.00 | 6.40 | 6.40 | 6.40 | 7.30 | 7.70 | 6.30 |  |  |  |  |  |  |  | 
5 | Cn1cc(C2=C(c3cn(C4CCN(CC(F)(F)C(F)(F)C(F)(F)F)CC4)c4ccccc34)C(=O)NC2=O)c2ccccc21 [Example 46, 3-{1-[1-(2,2,3,3,4,4,4-Heptafluoro-butyl)-piperidin-4-yl]-indol-3-yl}-4-(1-methyl-indol-3-yl)-1H-pyrrole-2,5-dione] |  |  |  |  |  |  |  |  | < 4.00 | 6.34 | < 4.00 | < 4.00 | < 4.00 | < 4.00 | 5.52 | < 4.00
6 | Cn1cc(C2=C(c3cn(C4CCN(Cc5ccccc5)CC4)c4ccccc34)C(=O)NC2=O)c2ccccc21 [Example 47] |  | 7.30 |  |  |  | 6.30 |  |  | 4.28 |  | 5.70 | 5.52 | 6.00 |  | 7.00 | 5.40
7 | Cn1cc(C2=C(c3cn(C4CCN(c5ccccn5)CC4)c4ccccc34)C(=O)NC2=O)c2ccccc21 [Example 48] | < 4.00 | 7.40 | 5.70 | 5.70 | 5.70 | 5.70 | 7.30 | 5.30 |  |  |  |  |  |  |  | 
8 | CN1CCC(n2cc(C3=C(c4c[nH]c5ccccc45)C(=O)NC3=O)c3ccccc32)CC1 [Example 51] | 5.30 | 8.00 | 6.40 | 7.30 | 6.70 | 7.40 | 7.70 | 6.30 |  |  |  |  |  |  |  | 

Further lines, with some results ahead:

Row | pIC50 [1, 9] | pIC50 [2, 10] | pIC50 [3, 11] | pIC50 [4, 12] | pIC50 [5, 13] | pIC50 [6, 14] | pIC50 [7, 15] | pIC50 [8, 16] | Compound | pIC50 [1] | pIC50 [2] | pIC50 [3] | pIC50 [4] | pIC50 [5] | pIC50 [6] | pIC50 [7] | pIC50 [8]
9 | 4.80 | 7.34 | 6.39 | 6.17 | 6.35 | 7.00 | 7.41 | 5.96 | O=C1NC(=O)C(c2cn(CCCO)c3ccccc23)=C1c1c[nH]c2ccccc12 [Example 11] |  |  |  |  |  |  |  | 
10 | 4.43 | 7.00 | 5.47 | 5.26 | 5.31 | 5.89 | 6.85 | 5.40 | Cc1c(C2=C(c3cn(CN(C)C)c4ccccc34)C(=O)NC2=O)c2ccccc2n1CCCN(C)C [Example 15] |  |  |  |  |  |  |  | 
11 | 4.40 | 6.22 | 5.10 | 5.00 | 4.41 | 5.25 | 6.15 | 5.04 | Cc1c(C2=C(c3c(C)n(CN(C)C)c4ccccc34)C(=O)NC2=O)c2ccccc2n1CCCN(C)C [Example 16] |  |  |  |  |  |  |  | 
12 | 4.70 | 7.70 | 6.40 | 6.40 | 6.52 | 7.00 | 8.05 | 6.00 | CC(=O)N1CCC(n2cc(C3=C(c4cn(C)c5ccccc45)C(=O)NC3=O)c3ccccc32)CC1 [Example 37, 3-(1-(1-Acetyl-piperidin-4-yl]-indol-3-yl)-4-(1-methyl-indol-3-yl)-pyrrole-2,5-dione] |  |  |  |  |  |  |  | 
13 | < 4.00 | 7.30 | 5.52 | 6.40 | 6.00 | 5.70 | 7.30 | 5.30 | CCOC(=O)CN1CCC(n2cc(C3=C(c4cn(C)c5ccccc45)C(=O)NC3=O)c3ccccc32)CC1 [Example 38] |  |  |  |  |  |  |  | 
14 | 4.82 | 7.00 | 5.40 | 6.00 | 5.52 | 5.70 | 6.70 | 5.40 | CN(C)CCCN1CCC(n2cc(C3=C(c4cn(C)c5ccccc45)C(=O)NC3=O)c3ccccc32)CC1 [Example 41, 3-{1-[1-N-(3-N,N-(Dimethylamino)propyl)-piperidin-4-yl]-indol-3-yl}-4-(1-methyl-indol-3-yl)-1H-pyrrole-2,5-dione] |  |  |  |  |  |  |  | 
15 | 5.32 | 8.30 | 7.00 | 6.44 | 7.38 | 8.30 | 8.30 | 7.09 | Cn1cc(C2=C(c3cn(C4CCN(C(=N)N)CC4)c4ccccc34)C(=O)NC2=O)c2ccccc21 [Example 44, 3-[1-(1-carboxamidine-piperidin-4-yl)-indol-3-yl)-4-(1-methyl-indol-3-yl)-1-pyrrole-2,5-dione] |  |  |  |  |  |  |  | 
16 | 5.52 | 7.70 | 6.30 | 6.30 | 6.52 | 7.00 | 7.52 | 6.22 | O=C1NC(=O)C(c2cn(C3CCNCC3)c3ccccc23)=C1c1c[nH]c2ccccc12 [Example 50] |  |  |  |  |  |  |  | 
17 | 4.29 | 6.64 | 5.46 | 5.18 | 5.49 | 5.77 | 6.39 | 5.37 | Cn1cc(C2=C(c3cn(CCCCOC4CC(O)C(CN)O4)c4ccccc34)C(=O)NC2=O)c2ccccc21 (stereo not shown) [Example 53] |  |  |  |  |  |  |  | 

Source: patent publication US5668152A, “Protein kinase C inhibitors” (priority 1995, dated 1997)
